Measurements: the supplement of paper PMC10307832

Assays:
Assay in all cases: relative viability (nuclei count vs DMSO), 5 days (fraction); higher = more cells survive
SGI-1776 + Luminespib = compound: CN1CCC(CNc2ccc3ncc(-c4cccc(OC(F)(F)F)c4)n3n2)CC1 [SGI-1776] + CCNC(=O)c1noc(-c2cc(C(C)C)c(O)cc2O)c1-c1ccc(CN2CCOCC2)cc1 [Luminespib] (partner 0.01 µM)
Procedure, shortened: (§1)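 Each reported value is a median over duplicate plates. It expresses relative viability: treated-well nuclei count divided by vehicle-well nuclei count. Lung cancer cell lines in 1536-well plates were dosed by pin tool a day after seeding, alone with one drug or with a fixed anchor-drug dose plus five library-drug doses (not always all listed) in √10 steps, and nuclei were counted after 5 days.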

[1] = compound: C1COCCN1C2=NC(=NC3=C2OC4=C3C=CC=N4)C5=CC(=CC=C5)NC(=O)C6=CN=C(C=C6)N + CC1(C)CCC(c2ccc(Cl)cc2)=C(CN2CCN(c3ccc(C(=O)NS(=O)(=O)c4ccc(N[C@H](CCN5CCOCC5)CSc5ccccc5)c(S(=O)(=O)C(F)(F)F)c4)cc3)CC2)C1 [Navitoclax] (partner 0.5 µM)
Procedure, shortened: as §1

SGI-1776 + Pictilisib = compound: CN1CCC(CNc2ccc3ncc(-c4cccc(OC(F)(F)F)c4)n3n2)CC1 [SGI-1776] + CS(=O)(=O)N1CCN(Cc2cc3nc(-c4cccc5[nH]ncc45)nc(N4CCOCC4)c3s2)CC1 [Pictilisib] (partner 1 µM)
Procedure, shortened: as §1

Cell Line	relative viability (SGI-1776 + Luminespib; first compound 0.08 µM)	relative viability (SGI-1776 + Luminespib; first compound 0.8 µM)	relative viability (SGI-1776 + Luminespib; first compound 2.53 µM)	relative viability (SGI-1776 + Luminespib; first compound 8 µM)	relative viability ([1]; first compound 0.02 µM)	relative viability ([1]; first compound 0.06325 µM)	relative viability ([1]; first compound 0.2 µM)	relative viability ([1]; first compound 0.6325 µM)	relative viability ([1]; first compound 2 µM)	relative viability (SGI-1776 + Pictilisib; first compound 0.08 µM)	relative viability (SGI-1776 + Pictilisib; first compound 0.8 µM)	relative viability (SGI-1776 + Pictilisib; first compound 2.53 µM)	relative viability (SGI-1776 + Pictilisib; first compound 8 µM)
NCI-H1755	0.482	0.515	0.408	0.326	0.987	1.13	1.05	0.861	0.561	0.386	0.442	0.367	0.299
NCI-H1792	0.371	0.558	0.431	0.264	0.571	0.675	0.718	0.53	0.462	0.282	0.264	0.284	0.231
NCI-H1793	0.217	0.163	0.286	0.161	0.398	0.523	0.416	0.655	0.375	0.301	0.256	0.399	0.314
NCI-H1915	0.778	0.843	0.75	0.684	0.757	0.838	0.824	0.836	0.873	0.934	0.979	0.964	0.838
NCI-H1944	0.871	0.67	0.669	0.618	1.03	1.04	0.957	0.841	0.858	0.355	0.334	0.343	0.324
NCI-H1975	0.302	0.137	0.208	0.106	1.31	1.17	1.05	1.13	0.422	0.382	0.311	0.246	0.203
NCI-H1993	0.882	0.964	0.676	0.652	0.819	1.06	0.822	0.874	0.763	0.711	0.665	0.839	0.703
NCI-H2009	1.04	1.03	0.977	0.955	1.19	1.2	1.12	1.05	0.954	0.764	0.93	0.682	0.474
NCI-H2023	0.746	0.77	0.693	0.363	1.05	1.03	0.967	0.904	0.444	0.23	0.23	0.202	0.147
NCI-H2085	0.481	0.44	0.513	0.333	1.15	1.12	1.05	1.1	0.602	0.533	0.505	0.53	0.356
NCI-H2087	0.138	0.212	0.183	0.17	1.02	1.03	0.925	0.918	0.608	0.953	0.974	0.826	0.899
NCI-H2126	0.933	0.972	0.947	0.774	0.872	0.828	0.9	0.839	0.763	0.499	0.534	0.501	0.468
NCI-H2170	0.723	0.669	0.668	0.419	0.674	0.605	0.673	0.525	0.413	0.297	0.281	0.284	0.238
NCI-H2228	0.169	0.139	0.164	0.13	0.959	1.31	0.783	1.3	0.348	0.446	0.38	0.286	0.177
NCI-H2347	0.344	0.558	0.324	0.539	0.854	0.895	0.815	0.747	0.528	0.614	0.941	0.734	0.614
NCI-H2405	0.647	0.632	0.538	0.452	0.819	0.927	0.904	0.931	0.721	0.478	0.507	0.309	0.257
NCI-H3122	0.089	0.096	0.0857	0.0863	0.975	1.05	1.03	1.02	0.798	0.594	0.717	0.632	0.515
PC-3 [JPC-3]	0.739	0.573	0.741	0.628	0.823	0.847	0.848	0.741	0.615	0.72	0.779	0.768	0.478
PC-14	0.154	0.138	0.126	0.129	1.09	1.06	1.02	1.01	0.465	0.667	0.681	0.747	0.195
RERF-LC-KJ	1.23	1.17	0.904	0.688	0.966	0.995	0.759	1	0.712	0.556	0.533	0.568	0.353
SK-LU-1	0.217	0.192	0.19	0.167	0.982	0.724	0.863	0.765	0.447	0.609	0.623	0.409	0.361
SK-MES-1	0.856	0.849	0.395	0.386	1.42	1.22	1.17	0.931	0.787	0.364	0.353	0.33	0.278
SW 1573	0.281	0.653	0.314	0.185	1.02	1.01	0.856	0.912	0.567	0.452	0.449	0.424	0.393
